From patent publication US8865750B2, “Small molecule inhibitors of RGS proteins” (The Regents of The University of Michigan, priority 2011, dated 2014)
Read-outs that look alike come from different tables or passages of the source.

How the values were obtained:
RGS8 = RGS8 (Homo sapiens (Human), UniProt P57771); test: FCPIA: Gαo binding to RGS8; conditions: for RGS8 Hill Slope: Table 3; for IC50: read-out: RGS8 IC50
Source text: (§1) FCPIA Dose Response and Reversibility Experiments:

RGS4 = test: FCPIA: Gαo binding to RGS4; conditions: for RGS4 Hill Slope: Table 3; for IC50: read-out: RGS4 IC50
Source text: as §1

HEK293 cells = test: Calcium mobilization induced by compound alone; type: cell-based; conditions: for Emax at 10 µM: Homo sapiens, HEK293, read-out: Calcium transient (% 50014); for induction of calcium transient by compound alone: 10 μM, HEK293 cells;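 for Calcium transient (% 50014): percent of response to 10 µM reference CCG-50014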
Procedure: Calcium Mobilization Experiments:
A stable cell line was developed based upon the HEK-293 Flp-In TREx cell line (Invitrogen, Carlsbad, Calif.) that stably express the muscarinic M3 receptor and have human RGS4 expression under doxycycline control. Cells were maintained in DMEM supplemented with 10% fetal bovine serum and Penicillin (100 units/ml)-Streptomycin (100 μg/ml) under 5% CO2 at 37° C. For experiments, cells were split into 96-well black, clear bottom, poly-D-lysine coated microtiter plates (Nunc, Cat. #152037) at a density of 20,000 cells/well in DMEM containing 10% fetal bovine serum and Penicillin (100 units/ml), Streptomycin (100 μg/ml). RGS4 expression was induced by supplementing the medium with 1 μg/mL doxycycline for 24-48 hours before experimentation. Cells were loaded with Fluo-4 No Wash dye in buffer for 30 minutes at 37° C. Compounds and/or carbachol were added to the wells and the fluorescence intensity was measured using a FlexStation (Molecular Devices, Sunnyvale, Calif.) plate reader. Data analysis was performed by calculating the area under the curve or maximal fluorescence intensity from a 120 second kinetic measurement.

[1] = Table 3, duplex FCPIA, average of two experiments

Chain of RGS8 (P57771 other isoform, or with tags, fused parts or gaps): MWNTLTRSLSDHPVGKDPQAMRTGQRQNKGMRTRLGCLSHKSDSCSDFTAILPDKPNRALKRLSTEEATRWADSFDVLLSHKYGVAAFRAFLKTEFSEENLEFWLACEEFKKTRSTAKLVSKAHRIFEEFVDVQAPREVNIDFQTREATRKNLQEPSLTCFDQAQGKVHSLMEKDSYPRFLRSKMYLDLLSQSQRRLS

Row | RGS8 Hill Slope (RGS8) | IC50 (RGS8; [1]) [µM] | RGS4 Hill Slope (RGS4) | IC50 (RGS4; Table 6, FCPIA) [µM] | IC50 (RGS8; Table 6, FCPIA) [µM] | IC50 (RGS4; [1]) [µM] | SMILES | Emax at 10 µM (HEK293 cells) [%] | induction of calcium transient by compound alone (HEK293 cells)
1 | −1.10 | 28.4 | −1.01 | 0.0235 | – | – | CCCCn1sc(=O)n(C)c1=O [CCG-203757, 2-butyl-4-methyl-1,2,4-thiadiazolidine-3,5-dione] | 138 | –
2 | −1.06 | – | −1.56 | – | 8.4 | 0.019 | Cc1ccc(-n2sc(=O)n(C)c2=O)cc1 [CCG-203759, 2-p-tolyl-4-methyl-1,2,4-thiadiazolidine-3,5-dione] | 238 | –
3 | −0.89 | – | −0.99 | – | 56 | 0.028 | Cn1c(=O)sn(C(C)(C)C)c1=O [CCG-203760, 2-t-butyl-4-methyl-1,2,4-thiadiazolidine-3,5-dione] | 47.2 | no ability to induce calcium mobilization
4 | −0.92 | – | −1.47 | 0.014 | 7.7 | – | Cc1ccc(-n2sc(=O)n(CC(C)C)c2=O)cc1 [CCG-203761, 2-p-tolyl-4-isobutyl-1,2,4-thiadiazolidine-3,5-dione] | 98.9 | –
5 | −0.78 | – | −0.87 | – | 70.6 | 0.026 | CCn1sc(=O)n(CC(C)C)c1=O [CCG-203762, 2-ethyl-4-isobutyl-1,2,4-thiadiazolidine-3,5-dione] | 38.3 | no ability to induce calcium mobilization
6 | −0.52 | 194 | −0.85 | – | – | 0.029 | CC(C)Cn1c(=O)sn(C(C)(C)C)c1=O [CCG-203763, 2-t-butyl-4-isobutyl-1,2,4-thiadiazolidine-3,5-dione] | 73.5 | –
7 | −0.59 | 31.6 | −0.81 | – | – | 0.016 | CCCCn1sc(=O)n(Cc2ccc(F)cc2)c1=O [CCG-203765, 2-butyl-4-(4-fluorobenzyl)-1,2,4-thiadiazolidine-3,5-dione] | 184 | –
8 | −0.96 | – | −1.46 | – | 9.5 | 0.02 | CCCCn1c(=O)sn(-c2ccc(C)cc2)c1=O [CCG-203767, 2-p-tolyl-4-butyl-1,2,4-thiadiazolidine-3,5-dione] | 123 | –
9 | −0.70 | 119 | −3.18 | – | – | 0.054 | CCCCn1c(=O)sn(C(C)(C)C)c1=O [CCG-203768, 2-t-butyl-4-butyl-1,2,4-thiadiazolidine-3,5-dione] | 91.7 | –
10 | −0.53 | 122 | −0.83 | – | – | 0.03 | CCCCn1sc(=O)n(CCCC)c1=O [CCG-203770, 2,4-dibutyl-1,2,4-thiadiazolidine-3,5-dione] | 188 | –
11 | −1.15 | 16.4 | −1.43 | – | – | 0.057 | O=c1sn(-c2cccc(C(F)(F)F)c2)c(=O)n1Cc1ccccc1 [CCG-203772] | 165 | –
12 | −0.87 | – | −1.25 | – | 10.9 | 0.033 | O=c1sn(-c2cccc(Cl)c2)c(=O)n1Cc1ccccc1 [CCG-203773, 2-(3-chlorophenyl)-4-benzyl-1,2,4-thiadiazolidine-3,5-dione] | 199 | –
13 | −1.14 | 16.2 | −0.88 | – | – | 0.079 | O=c1sn(-c2cccc(C(F)(F)F)c2)c(=O)n1Cc1ccc(F)cc1 [CCG-203775, 2-(3-trifluoromethylphenyl)-4-(4-fluorobenzyl)-1,2,4-thiadiazolidine-3,5-dione] | 170 | –
14 | −1.07 | 12.8 | −1.08 | – | – | 0.052 | O=c1sn(-c2cccc(Cl)c2)c(=O)n1Cc1ccc(F)cc1 [CCG-203776, 2-(3-chlorophenyl)-4-(4-fluorobenzyl)-1,2,4-thiadiazolidine-3,5-dione] | 223 | –
15 | −1.00 | 17.5 | −0.96 | – | – | 0.017 | Cc1ccc(-n2sc(=O)n(Cc3cccc(Cl)c3)c2=O)cc1 [CCG-203777, 2-p-tolyl-4-(3-chlorobenzyl)-1,2,4-thiadiazolidine-3,5-dione] | 179 | –
16 | −1.09 | 7.1 | −1.91 | – | – | 0.121 | Cc1cccc(-n2sc(=O)n(Cc3ccc(F)cc3)c2=O)c1 [CCG-203788, 2-(3-methylphenyl)-4-(4-fluorobenzyl)-1,2,4-thiadiazolidine-3,5-dione] | 134 | –

The next lines start with the compound.

Row | SMILES | RGS8 Hill Slope (RGS8) | IC50 (RGS8; [1]) [µM] | RGS4 Hill Slope (RGS4) | IC50 (RGS4; Table 6, FCPIA) [µM] | IC50 (RGS8; Table 6, FCPIA) [µM] | IC50 (RGS4; [1]) [µM] | Emax at 10 µM (HEK293 cells) [%] | induction of calcium transient by compound alone (HEK293 cells)
17 | CN(C)c1ccc(-n2sc(=O)n(Cc3ccc(F)cc3)c2=O)cc1 [S2, 2-(4-dimethylaminophenyl)-4-(4-fluorobenzyl)-1,2,4-thiadiazolidine-3,5-dione] | −1.28 | 10.3 | −1.65 | – | 10.3 | – | 111 | –
18 | CC(C)(C)c1ccc(-n2sc(=O)n(Cc3ccccc3)c2=O)cc1 [S3, 2-(4-t-butylphenyl)-4-benzyl-1,2,4-thiadiazolidine-3,5-dione] | −0.78 | 17.4 | −1.79 | – | 17.4 | – | 123 | –
19 | O=c1sn(-c2ccc(Cl)cc2)c(=O)n1Cc1ccc(Cl)cc1 [S5, 2-(4-chlorophenyl)-4-(4-chlorobenzyl)-1,2,4-thiadiazolidine-3,5-dione] | −1.36 | 12.7 | −1.48 | – | 12.7 | – | 141 | –
20 | COc1ccc(-n2sc(=O)n(Cc3ccc(Cl)cc3)c2=O)cc1 [S6, 2-(4-methoxyphenyl)-4-(4-chlorobenzyl)-1,2,4-thiadiazolidine-3,5-dione] | −0.91 | 40.2 | −1.73 | – | 40.2 | – | 104 | –
21 | Cc1ccc(Cn2sc(=O)n(Cc3ccc(Cl)cc3)c2=O)cc1 [S8, 2-(4-methylbenzyl)-4-(4-chlorobenzyl)-1,2,4-thiadiazolidine-3,5-dione] | −0.60 | 337 | −1.23 | – | 337 | – | 11.4 | –
22 | Cc1ccc(Cn2c(=O)sn(-c3ccccc3)c2=O)cc1 [S9, 2-phenyl-4-(4-methylbenzyl)-1,2,4-thiadiazolidine-3,5-dione] | −0.87 | 8.3 | −1.50 | – | 8.3 | – | 12.2 | –
23 | Cc1ccc(Cn2c(=O)sn(-c3ccc(Cl)cc3)c2=O)cc1 [S10, 2-(4-chlorophenyl)-4-(4-methylbenzyl)-1,2,4-thiadiazolidine-3,5-dione] | −1.17 | 12.8 | −1.59 | – | 12.8 | – | 20 | –
24 | Cc1ccc(Cn2sc(=O)n(Cc3ccc(C)cc3)c2=O)cc1 [S13, 2,4-bis(4-methylbenzyl)-1,2,4-thiadiazolidine-3,5-dione] | −0.51 | 94.7 | −0.92 | – | 94.7 | – | 251 | –
25 | O=c1sn(-c2ccccc2)c(=O)n1Cc1cccc(Cl)c1 [S14, 2-phenyl-4-(3-chlorobenzyl)-1,2,4-thiadiazolidine-3,5-dione] | −1.47 | 9.4 | −1.41 | – | 9.4 | – | 57.7 | –
26 | Cc1cccc(-n2sc(=O)n(Cc3cccc(Cl)c3)c2=O)c1 [S16, 2-m-tolyl-4-(3-chlorobenzyl)-1,2,4-thiadiazolidine-3,5-dione] | −0.95 | 10.1 | −1.52 | – | 10.1 | – | 142 | –
27 | O=c1sn(-c2cccc(Cl)c2)c(=O)n1Cc1cccc(Cl)c1 [S17, 2-(3-chlorophenyl)-4-(3-chlorobenzyl)-1,2,4-thiadiazolidine-3,5-dione] | −1.66 | 21.1 | −1.55 | – | 21.1 | – | 67.8 | –
28 | Cc1cccc(Cn2c(=O)sn(-c3ccccc3)c2=O)c1 [S19, 2-phenyl-4-(3-methylbenzyl)-1,2,4-thiadiazolidine-3,5-dione] | −1.17 | 8.4 | −1.65 | – | 8.4 | – | 243 | –
29 | Cc1cccc(Cn2c(=O)sn(-c3cccc(C)c3)c2=O)c1 [S21, 2-m-tolyl-4-(3-methylbenzyl)-1,2,4-thiadiazolidine-3,5-dione] | −0.82 | 10.4 | −1.79 | – | 10.4 | – | 63.3 | –
